Source: PubChem BioAssay AID328 (DTP/NCI, 2004)
Values joined by “and” are separate entries in the source; they are usually repeats but may differ in a detail not shown here. Equal values may be shown once. Inconclusive results and toxic doses are left out. The calls were made as follows: active = survival T/C of 150% or more; inactive = T/C below 125% in these data.

Test system: BDF1 mice, P388 leukemia ip, median survival T/C
Assay: NCI In Vivo Anticancer Drug Screen. Data for tumor model P388 Leukemia (intraperitoneal) in B6D2F1 (BDF1) mice
Details: endpoint: median survival time, higher = longer survival
How it was run: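 Mice carrying the transplantable tumour receive compound or vehicle. Survival is followed in each arm, and the treated measure is divided by the vehicle measure.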

[1] = dose: 25.0 mg/kg/injection, schedule: Q01DX009 (ip), vehicle: saline
[2] = dose: 50.0 mg/kg/injection, schedule: Q01DX009 (ip), vehicle: saline
[3] = dose: 50.0 mg/kg/injection, schedule: Q01DX009 (ip), vehicle: saline with Tween-80
[4] = dose: 100.0 mg/kg/injection, schedule: Q01DX009 (ip), vehicle: saline with Tween-80
[5] = dose: 100.0 mg/kg/injection, schedule: Q04DX003 (ip), vehicle: saline with Tween-80
[6] = dose: 200.0 mg/kg/injection, schedule: Q04DX003 (ip), vehicle: saline with Tween-80
[7] = dose: 200.0 mg/kg/injection, schedule: Q01DX009 (ip), vehicle: saline with Tween-80
[8] = dose: 100.0 mg/kg/injection, schedule: Q01DX009 (ip), vehicle: Klucel (hydroxypropylcellulose) (HPC)
[9] = dose: 200.0 mg/kg/injection, schedule: Q01DX009 (ip), vehicle: Klucel (hydroxypropylcellulose) (HPC)
[10] = dose: 400.0 mg/kg/injection, schedule: Q01DX009 (ip), vehicle: Klucel (hydroxypropylcellulose) (HPC)
[11] = dose: 25.0 mg/kg/injection, schedule: Q04DX003 (ip), vehicle: Klucel (hydroxypropylcellulose) (HPC)
[12] = dose: 100.0 mg/kg/injection, schedule: Q01DX009 (ip), vehicle: other
[13] = dose: 100.0 mg/kg/injection, schedule: Q04DX003 (ip), vehicle: other
[14] = dose: 200.0 mg/kg/injection, schedule: Q01DX009 (ip), vehicle: other
[15] = dose: 200.0 mg/kg/injection, schedule: Q04DX003 (ip), vehicle: other
[16] = dose: 400.0 mg/kg/injection, schedule: Q01DX009 (ip), vehicle: other
[17] = dose: 400.0 mg/kg/injection, schedule: Q04DX003 (ip), vehicle: other

Measured: T/C

NC(=O)NNC(N)=O
inactive: dose: 12.5 mg/kg/injection, schedule: Q04DX003 (ip), vehicle: saline 105 % of control | [1] 100 % of control | dose: 25.0 mg/kg/injection, schedule: Q04DX003 (ip), vehicle: saline 116 % of control | [2] 100 % of control | dose: 50.0 mg/kg/injection, schedule: Q04DX003 (ip), vehicle: saline 100 % of control | dose: 75.0 mg/kg/injection, schedule: Q04DX003 (ip), vehicle: saline 100 % of control | dose: 115.0 mg/kg/injection, schedule: Q04DX003 (ip), vehicle: saline 86 % of control | dose: 170.0 mg/kg/injection, schedule: Q04DX003 (ip), vehicle: saline 90 % of control

C=CCCCCCCCCC(=O)NCCN1CCOCC1
inactive: [3] 104 % of control | [4] 100 % of control

CCN(CC)c1c(C)nnc2c(-c3ccccc3)nnn12
inactive: dose: 50.0 mg/kg/injection, schedule: Q04DX003 (ip), vehicle: saline with Tween-80 97 % of control | [5] 100 % of control | [6] 97 % of control

CC(=O)OCC(=O)[C@@]1(O)CC[C@H]2[C@@H]3C=C(C)C4=CC(=O)CC[C@]4(C)[C@H]3[C@@H](O)C[C@@]21C
inactive: [4] 108 % of control | [5] 95 % of control | [7] 91 % of control | [6] 95 % of control | dose: 400.0 mg/kg/injection, schedule: Q01DX009 (ip), vehicle: saline with Tween-80 108 % of control | dose: 400.0 mg/kg/injection, schedule: Q04DX003 (ip), vehicle: saline with Tween-80 95 % of control

CC(=O)Nc1ccc(C=O)cc1[N+](=O)[O-]
inactive: [8] 110 % of control | [9] 100 % of control | [10] 100 % of control

COc1ccc(C(=O)OCCN(CCN(CCOC(=O)c2ccc(OC)cc2)C(=O)c2ccc(OC)cc2)C(=O)c2ccc(OC)cc2)cc1
inactive: dose: 6.25 mg/kg/injection, schedule: Q01DX009 (ip), vehicle: Klucel (hydroxypropylcellulose) (HPC) 95 % of control | dose: 12.5 mg/kg/injection, schedule: Q01DX009 (ip), vehicle: Klucel (hydroxypropylcellulose) (HPC) 95 % of control | [11] 91 % of control | dose: 50.0 mg/kg/injection, schedule: Q04DX003 (ip), vehicle: Klucel (hydroxypropylcellulose) (HPC) 90 % of control | dose: 100.0 mg/kg/injection, schedule: Q04DX003 (ip), vehicle: Klucel (hydroxypropylcellulose) (HPC) 96 % of control | dose: 200.0 mg/kg/injection, schedule: Q04DX003 (ip), vehicle: Klucel (hydroxypropylcellulose) (HPC) 91 % of control

CC1(c2cccc([N+](=O)[O-])c2)OCCO1
inactive: [12] 109 % of control | [13] 100 % of control | [14] 100 % of control | [15] 95 % of control | [16] 100 % of control | [17] 91 % of control

COP(=O)(O)/C(C)=N/NS(=O)(=O)c1ccc(C)cc1
inactive: dose: 25.0 mg/kg/injection, schedule: Q01DX009 (ip), vehicle: other 100 % of control | dose: 50.0 mg/kg/injection, schedule: Q01DX009 (ip), vehicle: other 103 % of control | [12] 100 % of control | [14] 100 % of control | [16] 102 % of control

CC(=O)OC1C(=O)C(C)(C)CSCC1(C)C (configuration not stated)
inactive: [8] 104 % of control | [9] 95 % of control | [10] 104 % of control

O=C(CNC(=O)Nc1n[nH]c(=S)s1)N/N=C/c1ccc2c(c1)OCO2
inactive: [3] 116 % of control | [4] 100 % of control | [7] 98 % of control

O=C1/C(=C/c2ccco2)CCC2CC3(CCC12)OCCO3 (configuration not stated)
inactive: [13] 108 % of control | [15] 91 % of control | [17] 108 % of control

Clc1ccc(N=C/C=C\C=C/Nc2ccc(Cl)cc2)cc1
inactive: dose: 20.0 mg/kg/injection, schedule: Q01DX009 (ip), vehicle: saline with Tween-80 91 % of control

CC(=O)C1CC2C=CCC(C2)C1 (configuration not stated)
inactive: dose: 50.0 mg/kg/injection, schedule: Q01DX001 (ip), vehicle: saline with Tween-80 95 % of control | dose: 100.0 mg/kg/injection, schedule: Q01DX001 (ip), vehicle: saline with Tween-80 120 % of control | dose: 200.0 mg/kg/injection, schedule: Q01DX001 (ip), vehicle: saline with Tween-80 95 % of control

Cc1c[n+]2ccccc2n1C
inactive: [1] 100 % of control | [2] 104 % of control

COc1cc2c(cc1OC)C1CNC(=O)C1C(c1ccccc1)C2 (configuration not stated)
inactive: dose: 50.0 mg/kg/injection, schedule: Q01DX001 (ip), vehicle: Klucel (hydroxypropylcellulose) (HPC) 100 % of control | dose: 100.0 mg/kg/injection, schedule: Q01DX001 (ip), vehicle: Klucel (hydroxypropylcellulose) (HPC) 95 % of control | dose: 200.0 mg/kg/injection, schedule: Q01DX001 (ip), vehicle: Klucel (hydroxypropylcellulose) (HPC) 100 % of control | dose: 400.0 mg/kg/injection, schedule: Q01DX001 (ip), vehicle: Klucel (hydroxypropylcellulose) (HPC) 96 % of control

CCc1ccc(NC(=O)N(CCCl)N=O)cc1
active: dose: 0.8 mg/kg/injection, schedule: Q01DX009 (ip), vehicle: gum acacia 158 % of control | dose: 1.3 mg/kg/injection, schedule: Q01DX009 (ip), vehicle: gum acacia 154 % of control | dose: 2.0 mg/kg/injection, schedule: Q01DX009 (ip), vehicle: gum acacia 153 % of control and 187 % of control | dose: 3.0 mg/kg/injection, schedule: Q01DX009 (ip), vehicle: gum acacia 176 % of control | dose: 4.5 mg/kg/injection, schedule: Q01DX009 (ip), vehicle: gum acacia 196 % of control | dose: 5.0 mg/kg/injection, schedule: Q04DX003 (ip), vehicle: Klucel (hydroxypropylcellulose) (HPC) 177 % of control and 204 % of control | dose: 7.0 mg/kg/injection, schedule: Q01DX009 (ip), vehicle: gum acacia 230 % of control and 236 % of control | dose: 8.0 mg/kg/injection, schedule: Q04DX003 (ip), vehicle: Klucel (hydroxypropylcellulose) (HPC) 214 % of control | dose: 11.0 mg/kg/injection, schedule: Q01DX009 (ip), vehicle: gum acacia 250 % of control | dose: 12.0 mg/kg/injection, schedule: Q04DX003 (ip), vehicle: Klucel (hydroxypropylcellulose) (HPC) 238 % of control | dose: 17.0 mg/kg/injection, schedule: Q01DX009 (ip), vehicle: gum acacia 196 % of control | dose: 18.0 mg/kg/injection, schedule: Q04DX003 (ip), vehicle: Klucel (hydroxypropylcellulose) (HPC) 233 % of control and 285 % of control | dose: 25.0 mg/kg/injection, schedule: Q01DX009 (ip), vehicle: gum acacia 212 % of control | [11] 300 % of control | dose: 37.0 mg/kg/injection, schedule: Q04DX003 (ip), vehicle: Klucel (hydroxypropylcellulose) (HPC) 300 % of control
inactive: dose: 0.62 mg/kg/injection, schedule: Q04DX003 (ip), vehicle: Klucel (hydroxypropylcellulose) (HPC) 109 % of control

CCOC(=O)Nc1nc(NC(=O)OCC)c(Cl)nc1Cl
inactive: dose: 12.5 mg/kg/injection, schedule: Q01DX009 (ip), vehicle: water 113 % of control | dose: 12.5 mg/kg/injection, schedule: Q04DX003 (ip), vehicle: water 90 % of control and 104 % of control | dose: 25.0 mg/kg/injection, schedule: Q01DX009 (ip), vehicle: water 99 % of control | dose: 25.0 mg/kg/injection, schedule: Q04DX003 (ip), vehicle: water 92 % of control and 104 % of control | dose: 50.0 mg/kg/injection, schedule: Q01DX009 (ip), vehicle: water 111 % of control | dose: 50.0 mg/kg/injection, schedule: Q04DX003 (ip), vehicle: water 102 % of control | dose: 100.0 mg/kg/injection, schedule: Q01DX009 (ip), vehicle: water 99 % of control | dose: 100.0 mg/kg/injection, schedule: Q04DX003 (ip), vehicle: water 100 % of control and 101 % of control | dose: 200.0 mg/kg/injection, schedule: Q01DX009 (ip), vehicle: water 90 % of control | dose: 200.0 mg/kg/injection, schedule: Q04DX003 (ip), vehicle: water 94 % of control and 96 % of control | dose: 400.0 mg/kg/injection, schedule: Q01DX009 (ip), vehicle: water 101 % of control | dose: 400.0 mg/kg/injection, schedule: Q04DX003 (ip), vehicle: water 112 % of control | dose: 500.0 mg/kg/injection, schedule: Q04DX003 (ip), vehicle: water 96 % of control
